Data taken from article PMC8509773, “3-Pyridinylidene Derivatives of Chemically Modified Lupane and Ursane Triterpenes as Promising Anticancer Agents by Targeting Apoptosis” (International Journal of Molecular Sciences, 2021).

Legend:
Experiment in all cases: NCI-60 SRB screening (one-dose and five-dose)
Assay type in all cases: cell-based, human
[1] = tested on: MDA-MB-468; settings: MDA-MB-468, 10 μM, 48 h
Procedure: (§1) The compounds were added at a single concentration and the cell cultures were incubated for 48 h. The end point determinations were made with a protein binding dye, sulforhodamine B (SRB). […] The percentage of growth was evaluated spectrophotometrically versus controls not treated with test agents after 48-h exposure and using SRB protein assay to estimate cell viability or growth. […] Furthermore, mean graph midpoints (MG_MID) were calculated for each of the parameters, giving an average activity parameter over all cell lines for the tested compound. For the MG_MID calculation, insensitive cell lines were included with the highest concentration tested.

[2] = tested on: NCI/ADR-RES; settings: 10 μM, 48 h
Procedure: as §1

[3] = tested on: RXF 393; settings: RXF 393, 10 μM, 48 h
Procedure: as §1

[4] = tested on: CAKI-1; settings: CAKI-1, 10 μM, 48 h
Procedure: as §1

[5] = tested on: SR; settings: 10 μM, 48 h
Procedure: as §1

[6] = tested on: HL-60(TB); settings: 10 μM, 48 h
Procedure: as §1

[7] = tested on: CCRF-CEM; settings: 10 μM, 48 h
Procedure: as §1

[8] = tested on: MOLT-4; settings: MOLT-4, 10 μM, 48 h
Procedure: as §1

[9] = tested on: SN12C; settings: 10 μM, 48 h
Procedure: as §1

[10] = tested on: SK-OV-3; settings: SK-OV-3, 10 μM, 48 h
Procedure: as §1

[11] = tested on: IGROV1; settings: IGROV1, 10 μM, 48 h
Procedure: as §1

[12] = tested on: K-562; settings: K-562, 10 μM, 48 h
Procedure: as §1

[13] = tested on: COLO 205; settings: COLO 205, 10 μM, 48 h
Procedure: as §1

[14] = tested on: MCF7; settings: MCF7, 10 μM, 48 h
Procedure: as §1

[15] = tested on: OVCAR-4; settings: OVCAR-4, 10 μM, 48 h
Procedure: as §1

[16] = tested on: OVCAR-5; settings: OVCAR-5, 10 μM, 48 h
Procedure: as §1

[17] = tested on: SW-620; settings: SW-620, 10 μM, 48 h
Procedure: as §1

[18] = tested on: 786-0; settings: 786-0, 10 μM, 48 h
Procedure: as §1

[19] = tested on: SF-268; settings: SF-268, 10 μM, 48 h
Procedure: as §1

[20] = tested on: EKVX; settings: 10 μM, 48 h
Procedure: as §1

[21] = tested on: HCC-2998; settings: HCC-2998, 10 μM, 48 h
Procedure: as §1

[22] = tested on: NCI-H226; settings: NCI-H226, 10 μM, 48 h
Procedure: as §1

[23] = tested on: HT29; settings: HT29, 10 μM, 48 h
Procedure: as §1

[24] = tested on: NCI-H460; settings: NCI-H460, 10 μM, 48 h
Procedure: as §1

[25] = tested on: KM-12; settings: KM-12, 10 μM, 48 h
Procedure: as §1

[26] = tested on: NCI-H322M; settings: 10 μM, 48 h
Procedure: as §1

[27] = tested on: TK-10; settings: TK-10, 10 μM, 48 h
Procedure: as §1

[28] = tested on: NCI-H23; settings: NCI-H23, 10 μM, 48 h
Procedure: as §1

[29] = tested on: UACC-62; settings: UACC-62, 10 μM, 48 h
Procedure: as §1

[30] = tested on: SK-MEL-5; settings: SK-MEL-5, 10 μM, 48 h
Procedure: as §1

[31] = tested on: PC-3; settings: PC-3, 10 μM, 48 h
Procedure: as §1

[32] = tested on: DU-145; settings: DU-145, 10 μM, 48 h
Procedure: as §1

[33] = tested on: BT-549; settings: BT-549, 10 μM, 48 h
Procedure: as §1

[34] = tested on: SF-539; settings: SF-539, 10 μM, 48 h
Procedure: as §1

[35] = tested on: SK-MEL-2; settings: SK-MEL-2, 10 μM, 48 h
Procedure: as §1

[36] = tested on: HOP-62; settings: HOP-62, 10 μM, 48 h
Procedure: as §1

[37] = tested on: A498; settings: A498, 10 μM, 48 h
Procedure: as §1

[38] = tested on: HOP-92; settings: HOP-92, 10 μM, 48 h
Procedure: as §1

[39] = tested on: MDA-MB-231/ATCC; settings: 10 μM, 48 h
Procedure: as §1

[40] = tested on: LOX IMVI; settings: 10 μM, 48 h
Procedure: as §1

SMILES | Growth Percent [1] [%] | Growth Percent [2] [%] | Growth Percent [3] [%] | Growth Percent [4] [%] | Growth Percent [7] [%] | Growth Percent [9] [%] | Growth Percent [10] [%] | Growth Percent [11] [%] | Growth Percent [13] [%] | Growth Percent [14] [%] | Growth Percent [15] [%] | Growth Percent [16] [%] | Growth Percent [17] [%] | Growth Percent [18] [%] | Growth Percent [19] [%] | Growth Percent [20] [%] | Growth Percent [21] [%] | Growth Percent [22] [%] | Growth Percent [23] [%] | Growth Percent [24] [%] | further results
COC(=O)[C@]12CC[C@@H](C(C)=O)[C@@H]1[C@H]1CC[C@@H]3[C@@]4(C)C/C(=C\c5cccnc5)C(=O)C(C)(C)[C@@H]4CC[C@@]3(C)[C@]1(C)CC2 [Compound 8, Methyl 3,20-dioxo-2-(3-pyridinylidene)-29-nor-lup-28-oate] | 55.75 | 52.54 | 30.89 | 51.03 | 7.57 | 57.75 | 93.73 | 85.80 | 82.53 | 19.18 | 26.68 | 114.28 | 25.33 | 84.87 | 68.63 | 85.77 | 75.76 | 48.05 | 16.53 | 70.90 | Growth Percent [5]: 12.35%; Growth Percent [6]: −2.67%; Growth Percent [8]: 5.47%; Growth Percent [12]: 18.29%; Growth Percent [25]: 60.52%; Growth Percent [26]: 93.90%; Growth Percent [27]: 132.71%; Growth Percent [28]: 53.20%; Growth Percent [29]: 34.54%; Growth Percent [30]: 39.76%; Growth Percent [31]: 24.42%; Growth Percent [32]: 68.80%; Growth Percent [33]: 46.03%; Growth Percent [34]: 81.03%; Growth Percent [35]: 68.06%; Growth Percent [36]: 102.96%; Growth Percent [37]: 80.56%; Growth Percent [38]: 66.73%; Growth Percent [39]: 76.56%
C[C@H]1[C@@H]2[C@H]3CC[C@@H]4[C@@]5(C)CC[C@H](O)C(C)(C)[C@@H]5CC[C@@]4(C)[C@]3(C)CC[C@]23CO[C@@]1(C)C(C(=O)/C=C/c1cccnc1)C3 (stereo partly drawn) [Compound 4] | 20.53 | 78.87 | 75.20 | 55.59 | 30.84 | 62.68 | 77.76 | 80.59 | 56.27 | 23.65 | 49.03 | 120.62 | 32.25 | 63.59 | 81.93 | 101.00 | 69.92 | 76.56 | 99.49 | 40.71 | Growth Percent [40]: 51.47%; Growth Percent [6]: 47.50%; Growth Percent [8]: 25.21%; Growth Percent [12]: 17.96%; Growth Percent [25]: 54.39%; Growth Percent [26]: 88.41%; Growth Percent [27]: 31.89%; Growth Percent [28]: 59.51%; Growth Percent [29]: 41.49%; Growth Percent [30]: 37.02%; Growth Percent [31]: 21.26%; Growth Percent [32]: 73.94%; Growth Percent [33]: 57.24%; Growth Percent [34]: 77.76%; Growth Percent [35]: 87.32%; Growth Percent [36]: 81.73%; Growth Percent [37]: 72.89%; Growth Percent [38]: 79.10%; Growth Percent [39]: 82.10%
C[C@H]1[C@@H]2[C@H]3CC[C@@H]4[C@@]5(C)CC[C@H](O)C(C)(C)[C@@H]5CC[C@@]4(C)[C@]3(C)CC[C@]23CO[C@@]1(C)[C@@H](C(=O)/C=C/c1ccco1)C3 [Compound 5, 3β-Hydroxy-21-[3-(2E-furyl)-prop-2-en-1-one]-20β,28-epoxy-18α,19βH-ursane] | 19.35 | 95.25 | 109.55 | 55.81 | 100.63 | 100.53 | 102.58 | 107.89 | −2.30 | 101.23 | 111.19 | 102.21 | 97.06 | 103.94 | 96.31 | 104.96 | 104.00 | 99.66 | 98.06 | 109.09 | Growth Percent [40]: 89.02%; Growth Percent [25]: 99.96%; Growth Percent [26]: 88.29%; Growth Percent [27]: 97.40%; Growth Percent [28]: 98.55%; Growth Percent [29]: 7.16%; Growth Percent [30]: 8.55%; Growth Percent [31]: 92.69%; Growth Percent [32]: 102.22%; Growth Percent [33]: 104.50%; Growth Percent [34]: 99.66%; Growth Percent [35]: 9.51%; Growth Percent [36]: 104.25%; Growth Percent [37]: 96.19%; Growth Percent [38]: 65.36%; Growth Percent [39]: 82.90%
